Results on 15 molecules are retold here after PubChem BioAssay AID284 (DTP/NCI, 2004).

In this test the test system is BDF1 mice, L1210/MTX-resistant leukemia ip, survival T/C. As to the kind of experiment: NCI In Vivo Anticancer Drug Screen. Data for tumor model L1210 Leukemia resistant to Methotrexate; NSC 740 (intraperitoneal) in B6D2F1 (BDF1) mice. The settings on record: endpoint: mean survival time, higher = longer survival. The method, then:
The antitumor activity of compounds was measured in mice bearing transplantable tumors. Survival or tumor size were measured and the results are expressed as the measurement made in the treated group (T) divided by the measurement made in the vehicle treated control group (C). The tumor model used in this assay is L1210 Leukemia resistant to Methotrexate; NSC 740 (intraperitoneal) in B6D2F1 (BDF1) mice

[1] abbreviates: dose: 7.5 mg/kg/injection, schedule: Q01DX Z (ip), vehicle: carboxymethylcellulose (CMC).
The mark [2] stands for this setting: dose: 15.0 mg/kg/injection, schedule: Q01DX Z (ip), vehicle: carboxymethylcellulose (CMC).
Where [3] appears, read: dose: 50.0 mg/kg/injection, schedule: Q01DX Z (ip), vehicle: carboxymethylcellulose (CMC).
Setting [4] is: dose: 12.5 mg/kg/injection, schedule: Q01DX010 (ip), vehicle: saline.
The mark [5] stands for this setting: dose: 2.5 mg/kg/injection, schedule: Q01DX Z (ip), vehicle: carboxymethylcellulose (CMC).
Where [6] appears, read: dose: 5.0 mg/kg/injection, schedule: Q01DX Z (ip), vehicle: carboxymethylcellulose (CMC).
Where [7] appears, read: dose: 10.0 mg/kg/injection, schedule: Q01DX Z (ip), vehicle: carboxymethylcellulose (CMC).
Setting [8] is: dose: 5.0 mg/kg/injection, schedule: Q01DX Z (ip), vehicle: saline.
Setting [9] is: dose: 10.0 mg/kg/injection, schedule: Q01DX Z (ip), vehicle: saline.

“And” between values parts separate entries of the source, which are not always exact repeats. Equal values may be shown once. Toxic doses and inconclusive results are not listed.

As to `O=c1[nH]c(=O)n(C2CC(O)C(CO)O2)cc1I` (configuration not stated), the T/C by setting is: (dose: 3.75 mg/kg/injection, schedule: Q01DX Z (ip), vehicle: carboxymethylcellulose (CMC)) 102 % of control; under setting [1], 108 % of control; under setting [2], 108 % of control; (dose: 30.0 mg/kg/injection, schedule: Q01DX Z (ip), vehicle: carboxymethylcellulose (CMC)) 106 % of control.
As for `Nc1nc2n[nH]nc2c(=O)[nH]1`, the T/C runs as follows: (dose: 25.0 mg/kg/injection, schedule: Q01DX010 (ip), vehicle: alkali diluted with saline) 92 % of control; (dose: 25.0 mg/kg/injection, schedule: Q01DX Z (ip), vehicle: water) 120 % of control; (dose: 50.0 mg/kg/injection, schedule: Q01DX010 (ip), vehicle: alkali diluted with saline) 94 % of control and 99 % of control; (dose: 50.0 mg/kg/injection, schedule: Q01DX Z (ip), vehicle: other) 106 % of control; (dose: 50.0 mg/kg/injection, schedule: Q01DX Z (ip), vehicle: water) 120 % of control; (dose: 100.0 mg/kg/injection, schedule: Q01DX010 (ip), vehicle: alkali diluted with saline) 90 % of control and 91 % of control. In addition, the T/C was 101 % of control (dose: 100.0 mg/kg/injection, schedule: Q01DX Z (ip), vehicle: other); 88 % of control and 98 % of control (dose: 200.0 mg/kg/injection, schedule: Q01DX010 (ip), vehicle: alkali diluted with saline); 107 % of control (dose: 200.0 mg/kg/injection, schedule: Q01DX Z (ip), vehicle: water); 94 % of control (dose: 350.0 mg/kg/injection, schedule: Q01DX Z (ip), vehicle: water).
Take `CC1(C)N=C(N)N=C(N)N1c1cccc(Br)c1`: the T/C was 97 % of control (dose: 2.0 mg/kg/injection, schedule: Q01DX Z (ip), vehicle: carboxymethylcellulose (CMC)); 109 % of control (dose: 6.25 mg/kg/injection, schedule: Q01DX Z (ip), vehicle: carboxymethylcellulose (CMC)); 98 % of control (dose: 12.5 mg/kg/injection, schedule: Q01DX Z (ip), vehicle: carboxymethylcellulose (CMC)); 98 % of control (dose: 25.0 mg/kg/injection, schedule: Q01DX Z (ip), vehicle: carboxymethylcellulose (CMC)); 92 % of control under setting [3].
Turning to `CN(C)/N=N/c1nc[nH]c1C(N)=O`, the T/C is 108 % of control under setting [4]; 118 % of control (dose: 25.0 mg/kg/injection, schedule: Q01DX010 (ip), vehicle: saline); 119 % of control (dose: 50.0 mg/kg/injection, schedule: Q01DX010 (ip), vehicle: saline); 118 % of control (dose: 100.0 mg/kg/injection, schedule: Q01DX010 (ip), vehicle: saline).
As to `Nc1nc(=S)c2[nH]cnc2[nH]1`, the T/C is 97 % of control (dose: 0.75 mg/kg/injection, schedule: Q01DX Z (ip), vehicle: carboxymethylcellulose (CMC)); 99 % of control and 106 % of control (dose: 1.25 mg/kg/injection, schedule: Q01DX010 (ip), vehicle: saline); 88 % of control (dose: 1.5 mg/kg/injection, schedule: Q01DX Z (ip), vehicle: carboxymethylcellulose (CMC)); 90 % of control (dose: 2.5 mg/kg/injection, schedule: Q01DX010 (ip), vehicle: saline); 102 % of control under setting [5]; 92 % of control (dose: 5.0 mg/kg/injection, schedule: Q01DX010 (ip), vehicle: saline). In addition, the T/C was 107 % of control under setting [6], 108 % of control under setting [1], 98 % of control under setting [7] and 88 % of control under setting [2].
As to `CCCCNc1ncnc2c1cnn2C`, the T/C (dose: 31.25 mg/kg/injection, schedule: Q01DX010 (ip), vehicle: saline) is 98 % of control and 102 % of control; the T/C (dose: 62.5 mg/kg/injection, schedule: Q01DX010 (ip), vehicle: saline) is 90 % of control.
For the molecule `CN(C)C(=S)N=Nc1c(O)[nH]c2ccccc12`, the T/C runs as follows: under setting [5], 110 % of control; under setting [6], 106 % of control; under setting [7], 115 % of control; (dose: 20.0 mg/kg/injection, schedule: Q01DX Z (ip), vehicle: carboxymethylcellulose (CMC)) 95 % of control; under setting [3], 124 % of control; (dose: 100.0 mg/kg/injection, schedule: Q01DX Z (ip), vehicle: carboxymethylcellulose (CMC)) 86 % of control.
With `COS(C)(=O)=O`, the T/C was 105 % of control under setting [8]; 103 % of control under setting [9]; 103 % of control (dose: 20.0 mg/kg/injection, schedule: Q01DX Z (ip), vehicle: saline); 97 % of control (dose: 40.0 mg/kg/injection, schedule: Q01DX Z (ip), vehicle: saline).
For `CC1CCOS(=O)O1` (configuration not stated), the T/C was 100 % of control (dose: 10.0 mg/kg/injection, schedule: Q01DX010 (ip), vehicle: saline); 100 % of control (dose: 20.0 mg/kg/injection, schedule: Q01DX010 (ip), vehicle: saline); 90 % of control (dose: 40.0 mg/kg/injection, schedule: Q01DX010 (ip), vehicle: saline).
For the molecule `CCN(CC)c1ccc2cc3ccc(=[N+](CC)CC)cc-3oc2c1`, the T/C runs as follows: (dose: 1.0 mg/kg/injection, schedule: Q01DX010 (ip), vehicle: saline) 100 % of control; (dose: 2.0 mg/kg/injection, schedule: Q01DX010 (ip), vehicle: saline) 91 % of control; (dose: 4.0 mg/kg/injection, schedule: Q01DX010 (ip), vehicle: saline) 98 % of control.
With `CCCNc1ncnc2[nH]ncc12`, the T/C is 90 % of control and 91 % of control (dose: 3.13 mg/kg/injection, schedule: Q01DX010 (ip), vehicle: saline); 100 % of control and 102 % of control (dose: 6.25 mg/kg/injection, schedule: Q01DX010 (ip), vehicle: saline); 86 % of control and 97 % of control under setting [4].
In the case of `O=C(Nc1ccc(C2=NCCN2)cc1)c1ccc(C(=O)Nc2ccc(C3=NCCN3)cc2)c([N+](=O)[O-])c1`, the T/C is 259 % of control (dose: 6.0 mg/kg/injection, schedule: Q01DX010 (ip), vehicle: saline); 122 % of control (dose: 6.3 mg/kg/injection, schedule: Q01DX Z (ip), vehicle: saline); 284 % of control (dose: 8.0 mg/kg/injection, schedule: Q01DX010 (ip), vehicle: saline); 201 % of control (dose: 12.0 mg/kg/injection, schedule: Q01DX010 (ip), vehicle: saline); 97 % of control (dose: 12.5 mg/kg/injection, schedule: Q01DX Z (ip), vehicle: saline); 107 % of control (dose: 18.0 mg/kg/injection, schedule: Q01DX010 (ip), vehicle: saline). The T/C (dose: 25.0 mg/kg/injection, schedule: Q01DX Z (ip), vehicle: saline) was 116 % of control and 96 % of control.
Take `O=CCC(O)C(O)C(O)CO` (configuration not stated): the T/C runs as follows: (dose: 3.75 mg/kg/injection, schedule: Q01DX Z (ip), vehicle: saline) 113 % of control; under setting [8], 118 % of control; (dose: 7.5 mg/kg/injection, schedule: Q01DX Z (ip), vehicle: saline) 114 % of control and 103 % of control; under setting [9], 118 % of control; (dose: 15.0 mg/kg/injection, schedule: Q01DX Z (ip), vehicle: saline) 114 % of control; (dose: 250.0 mg/kg/injection, schedule: Q01DX Z (ip), vehicle: saline) 108 % of control. The T/C was 104 % of control (dose: 500.0 mg/kg/injection, schedule: Q01DX Z (ip), vehicle: saline); 99 % of control (dose: 750.0 mg/kg/injection, schedule: Q01DX Z (ip), vehicle: saline); 91 % of control (dose: 1000.0 mg/kg/injection, schedule: Q01DX Z (ip), vehicle: saline).
Turning to `Nc1nc(N)c2nc(CNc3ccc(C(=O)NC(CCC(=O)O)C(=O)O)cc3)cnc2n1` (configuration not stated), the T/C is, setting by setting: (dose: 0.05 mg/kg/injection, schedule: Q01DX010 (ip), vehicle: other) 90 % of control; (dose: 0.1 mg/kg/injection, schedule: Q01DX010 (ip), vehicle: other) 102 % of control and 103 % of control; (dose: 0.2 mg/kg/injection, schedule: Q01DX010 (ip), vehicle: other) 92 % of control and 104 % of control; (dose: 0.4 mg/kg/injection, schedule: Q01DX010 (ip), vehicle: other) 89 % of control.
For `O=C1N(Cl)C(=O)C(c2ccc(Cl)cc2)(c2ccc(Cl)cc2)N1Cl`, the T/C by setting is: (dose: 0.8 mg/kg/injection, schedule: Q01DX Z (ip), vehicle: methylcellulose (MC)) 90 % of control; (dose: 1.6 mg/kg/injection, schedule: Q01DX Z (ip), vehicle: methylcellulose (MC)) 90 % of control; (dose: 3.2 mg/kg/injection, schedule: Q01DX Z (ip), vehicle: methylcellulose (MC)) 86 % of control and 98 % of control.
